≈ marks a conversion by molar mass, not a printed value.
Key:
Moraxella catarrhalis = test: MIC, fastidious Gram negative organisms in Mueller-Hinton broth; type: cell-based; details: Mueller-Hinton broth with hemin and NAD, aerobic, 24 hours, 37° C., 5×10^4 CFU/well
Description: (§1) The following results were obtained on a standard in-vitro test system. The activity is described in terms of the minimum inhibitory concentration (MIC) determined by the agar-dilution technique with an inoculum size of 10^4 CFU/spot. Typically, compounds are active in the range 0.01 to 256 μg/ml.
(§2) Streptococci and enterococci were tested on agar supplemented with 5% defibrinated horse blood, an inoculum of 10^4 CFU/spot and an incubation temperature of 37° C. in an atmosphere of 5% carbon dioxide for 48 hours—blood is required for the growth of some of the test organisms. Fastidious Gram negative organisms were tested in Mueller-Hinton broth, supplemented with hemin and NAD, grown aerobically for 24 hours at 37° C., and with an innoculum of 5×10^4 CFU/well.

Haemophilus influenzae = test: as above; type: cell-based; details: Mueller-Hinton broth with hemin and NAD, aerobic, 24 hours, 37° C., 5×10^4 CFU/well
Description: as §1, §2

[1] = test system: Staphylococcus aureus MRQR (methicillin resistant and quinolone resistant); test: MIC, agar-dilution, Staphylococci; type: cell-based; details: inoculum 10^4 CFU/spot, 37° C., 24 hours
Description: as §1
(§3) Staphylococci were tested on agar, using an inoculum of 10^4 CFU/spot and an incubation temperature of 37° C. for 24 hours—standard test conditions for the expression of methicillin resistance.

[2] = test system: Staphylococcus aureus MSQS (methicillin sensitive and quinolone sensitive); test: MIC, agar-dilution, Staphylococci; type: cell-based; details: inoculum 10^4 CFU/spot, 37° C., 24 hours
Description: as §1, §3

Streptococcus pyogenes = test: MIC, agar-dilution on agar with 5% defibrinated horse blood, Streptococci; type: cell-based; details: 10^4 CFU/spot, 37° C., 5% carbon dioxide, 48 hours
Description: as §1, §2

Streptococcus pneumoniae = test: as above; type: cell-based; details: 10^4 CFU/spot, 37° C., 5% carbon dioxide, 48 hours
Description: as §1, §2

Row | SMILES | MIC (Moraxella catarrhalis) [µg/mL] | MIC (Haemophilus influenzae) [µg/mL] | MIC [1] [µg/mL] | MIC [2] [µg/mL] | MIC (Streptococcus pyogenes) [µg/mL] | MIC (Streptococcus pneumoniae) [µg/mL] | melting point [°C]
1 | CC(=O)NC[C@H]1CN(c2ccc(-c3ccc(N4C[C@H](CNC(C)=O)OC4=O)cc3F)c(F)c2)C(=O)O1 [Example 1, (5S,5′S)-N-(3-{4′-[5-(Acetylamino-methyl)-2-oxo-oxazolidin-3-yl]-2,2′-difluoro-biphenyl-4-yl}-2-oxo-oxazolidin-5-ylmethyl)-acetamide] | 0.5 (≈ 0.995 µM) | 2 (≈ 3.98 µM) | 0.5 (≈ 0.995 µM) | 0.25 (≈ 0.498 µM) | 0.13 (≈ 0.259 µM) | 0.06 (≈ 0.119 µM) | 
2 | CC(=O)NC[C@H]1CN(c2ccc(-c3ccc(N4C[C@H](CNC(C)=O)OC4=O)s3)s2)C(=O)O1 [Example 62, N-{[(5S)-3-(5′-{5-[(Acetylamino)methyl]-2-oxo-1,3-oxazolidin-3-yl}-2,2′-bithien-5-yl)-2-oxo-1,3-oxazolidin-5-yl]methyl}acetamide] |  |  |  |  |  |  | 257 to 260
